We go through twelve molecules from ChEMBL document CHEMBL1121538, “Nucleosides. 116. 1-(beta-D-Xylofuranosyl)-5-fluorocytosines with a leaving group on the 3' position. Potential double-barreled masked precursors of anticancer nucleosides” (1980).

≈ marks a conversion by molar mass, not a printed value.

Common to all, as to assay type: functional
Common to all, as to conditions: read-out: ID50 (the source's name)

In assay [1] the test system is P815. Kind of assay: The compound was tested for anticancer activity against P815 (sensitive) cell lines of mouse leukemia.
The subject of assay [2] is L5178Y. Description: The compound was tested for anticancer activity against L5178Y (sensitive) cell lines of mouse leukemia.
In assay [3] the test system is L5178Y. Description: The compound was tested for anticancer activity against L5178Y ([…] resistant) cell lines of mouse leukemia.
Assay [4] concerns P815. Description: The compound was tested for anticancer activity against P815([…] resistant) cell lines of mouse leukemia.

In the case of `Nc1ccn(C2OC(CO)C(Cl)C2O)c(=O)n1` (stereo not drawn), the IC50 with P815 [1] is 0.8 µg/mL (≈ 3.06 µM); with L5178Y [2], 2 µg/mL (≈ 7.64 µM); in the assay with L5178Y [3], over 100 µg/mL; in the assay with P815 [4], over 100 µg/mL.

Turning to `Nc1ccn([C@@H]2O[C@H](CO)[C@@H](O)[C@@H]2O)c(=O)n1` [CYTARABINE], the IC50 in the assay on P815 [1] was 10 µg/mL (≈ 41.1 µM); with L5178Y [2], 20 µg/mL (≈ 82.2 µM); with L5178Y [3], 79 µg/mL (≈ 325 µM); with P815 [4] it was 40 µg/mL (≈ 164 µM).

Take `Nc1ccn(C2OC(CO)C(I)C2O)c(=O)n1` (stereo not drawn): the IC50 in the assay on P815 [1] is 0.3 µg/mL (≈ 0.85 µM); in the assay on L5178Y [2], 0.1 µg/mL (≈ 0.283 µM); with L5178Y [3], over 100 µg/mL; in the assay with P815 [4] it was over 100 µg/mL.

With `Cc1ccc(S(=O)(=O)O[C@@H]2[C@@H](O)[C@H](n3ccc(N)nc3=O)O[C@@H]2CO)cc1`, the IC50 was 0.06 µg/mL (≈ 0.151 µM) in the assay on P815 [1], 0.08 µg/mL (≈ 0.201 µM) with L5178Y [2], over 100 µg/mL in the assay on L5178Y [3] and over 30 µg/mL with P815 [4].

Take `Nc1nc(=O)n(C2OC(CO)C(Br)C2O)cc1F` (stereo not drawn): the IC50 in the assay with P815 [1] amounted to 0.2 µg/mL (≈ 0.617 µM); in the assay with L5178Y [2], 0.06 µg/mL (≈ 0.185 µM); in the assay with L5178Y [3], 2.6 µg/mL (≈ 8.02 µM); in the assay on P815 [4], 5 µg/mL (≈ 15.4 µM).

Regarding `CS(=O)(=O)O[C@@H]1[C@@H](O)[C@H](n2ccc(N)nc2=O)O[C@@H]1CO`, the IC50 is 0.03 µg/mL (≈ 0.0934 µM) in the assay with P815 [1], 0.07 µg/mL (≈ 0.218 µM) in the assay with L5178Y [2], over 100 µg/mL with L5178Y [3] and 22 µg/mL (≈ 68.5 µM) in the assay on P815 [4].

In the case of `Nc1nc(=O)n(C2OC(CO)C(I)C2O)cc1F` (stereo not drawn), the IC50 in the assay with P815 [1] was determined as 0.1 µg/mL (≈ 0.269 µM); in the assay with L5178Y [2], 0.08 µg/mL (≈ 0.216 µM); in the assay with L5178Y [3], 10 µg/mL (≈ 26.9 µM); in the assay on P815 [4], 8 µg/mL (≈ 21.6 µM).

`Nc1ccn(C2OC(CO)C(Br)C2O)c(=O)n1` (stereo not drawn): the IC50 in the assay on P815 [1] is 0.05 µg/mL (≈ 0.163 µM); in the assay with L5178Y [2], 0.03 µg/mL (≈ 0.098 µM); with L5178Y [3] it was over 100 µg/mL; in the assay on P815 [4] it was over 100 µg/mL.

`Nc1ccn([C@@H]2O[C@H](CO)[C@H](F)[C@H]2O)c(=O)n1`: the IC50 in the assay on P815 [1] was 21 µg/mL (≈ 85.6 µM); in the assay on L5178Y [2], 37 µg/mL (≈ 151 µM); in the assay on L5178Y [3] it was over 100 µg/mL; in the assay with P815 [4], over 100 µg/mL.

As for `CS(=O)(=O)O[C@@H]1[C@@H](O)[C@H](n2cc(F)c(N)nc2=O)O[C@@H]1CO`, the IC50 came to 0.02 µg/mL (≈ 0.0589 µM) in the assay on P815 [1], 0.05 µg/mL (≈ 0.147 µM) with L5178Y [2], 5.3 µg/mL (≈ 15.6 µM) in the assay with L5178Y [3] and 6 µg/mL (≈ 17.7 µM) in the assay on P815 [4].

Turning to `Cc1ccc(S(=O)(=O)O[C@@H]2[C@@H](O)[C@H](n3cc(F)c(N)nc3=O)O[C@@H]2CO)cc1`, the IC50 in the assay with P815 [1] was determined as 0.02 µg/mL (≈ 0.0481 µM); in the assay with L5178Y [2], 0.06 µg/mL (≈ 0.144 µM); with L5178Y [3], 8 µg/mL (≈ 19.3 µM); in the assay on P815 [4], 3.9 µg/mL (≈ 9.39 µM).

In the case of `Nc1nc(=O)n(C2OC(CO)C(Cl)C2O)cc1F` (stereo not drawn), the IC50 in the assay on P815 [1] was 0.7 µg/mL (≈ 2.5 µM); in the assay on L5178Y [2], 1 µg/mL (≈ 3.58 µM); in the assay with L5178Y [3], 71 µg/mL (≈ 254 µM); with P815 [4], over 30 µg/mL.
